Data published in patent US12459951B2, “Compounds that interact with RAS superfamily proteins for treatment of cancers, inflammatory diseases, rasopathies, and fibrotic disease” (SHY Therapeutics, LLC, priority 2022, dated 2025).

Experiments:
IL6 = assay: IL-6 Quantification Assay (ELISA), LPS-stimulated RAW 264.7; type: cell-based; design: inhibition: dose or concentration left out as unconfirmed; settings: Mus musculus, RAW264.7; read-out: IL-6: % inh.
KRas G12D mutant = assay: Ras GTP Binding Domain Inhibition Assay (Ras Superfamily Assay); settings: at 20 μM; for KRas G12D mutant + SOS: % inh.: with SOS; for KRas G12D mutant: % inh.: without SOS
In short: (§1)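 Binding of 100 nM fluorescent GTP (Cy3 or Cy5, 45 min, room temperature) was read after washes from plate-captured His-tagged protein. Beforehand, compounds at 20 μM or in dilution series for IC50 sat 3 h on the protein in Tris buffer pH 7.4 or 7.0 with 1% DMSO, Sos GEF optionally added for the last hour.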

Rac-1 = biological target: T1, Rac-1 (Homo sapiens, UniProt P63000); assay: as above; settings: read-out: Rac-1: % inh.
T1 construct: made in house
In short: as §1

KRas wild type = assay: as above; settings: at 20 μM; for KRas wild type + SOS: % inh.: with SOS; for KRas wild type: % inh.: without SOS
In short: as §1

[1] = system: Smad2/Smad3 phosphorylation; assay: Phospho-Smad2/3 Inhibition Assay (western blot), Panc-1; type: cell-based, human; settings: at 10 μM, Panc-1 pancreatic cancer cell line; starred symbols = activation
In short: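 Panc-1 cells (KRas G12D), starved overnight in 0.5% FBS, treated 3 h at 37° C with compound at 10 μM final (0.3% DMSO) or serial dilutions for IC50, then stimulated with 10 ng/ml TGF-b1 for 1 h. Phospho-Smad2 (Ser465/467) and phospho-Smad3 (Ser423/425) detected by western blot.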

Compound	inhibition (IL6)	KRas G12D mutant + SOS: % inh. (KRas G12D mutant)	KRas G12D mutant: % inh. (KRas G12D mutant)	inhibition at 20 µM (Rac-1)	KRas wild type + SOS: % inh. (KRas wild type)	KRas wild type: % inh. (KRas wild type)	% inh of Smad2/3 phosphorylation in Panc-1 [1]
COCCNc1nc(-c2nccn2C)nn2cc(-c3cccnc3)c(-c3ccccc3)c12 [Compound 195, N-(2-Methoxyethyl)-2-(1-methyl-1H-imidazol-2-yl)-5-phenyl-6-(pyridin-3-yl)pyrrolo[2,1-f][1,2,4]triazin-4-amine]	50 to 74%	A (A = 1-25% inhibition)	A (A = 1-25% inhibition)	1 to 25%	0 (0 = 0% inhibition)	A (A = 1-25% inhibition)	A* (A* = 1-25% activation)
Cc1c(-c2ccn(C)n2)cn2nc(-c3nccn3C)nc(Nc3ccc(OC(F)(F)F)cn3)c12 [Compound 232, 5-Methyl-2-(1-methyl-1H-imidazol-2-yl)-6-(1-methyl-1H-pyrazol-3-yl)-N-(5-(trifluoro-methoxy)pyridin-2-yl)pyrrolo[2,1-f][1,2,4]triazin-4-amine]	25 to 49%	D (D = 76-100% inhibition)	D (D = 76-100% inhibition)	76 to 100%	D (D = 76-100% inhibition)	D (D = 76-100% inhibition)	B (B = 26-45% inhibition)
COc1ccnc(Nc2nc(-c3nccn3C)nn3cc(-c4ccn(CCNC(=O)CCCC[C@H]5SC[C@H]6NC(=O)N[C@H]65)n4)c(C)c23)c1 [Compound 215, N-(2-(3-(4-((4-methoxypyridin-2-yl)amino)-5-methyl-2-(1-methyl-1H-imidazol-2-yl)pyrrolo[2,1-f][1,2,4]triazin-6-yl)-1H-pyrazol-1-yl)ethyl)-5-((3aR,4R,6aS)-2-oxohexahydro-1H-thieno[3,4-d]imidazol-4-yl)pentanamide]	1 to 24%	D (D = 76-100% inhibition)	D (D = 76-100% inhibition)	76 to 100%	D (D = 76-100% inhibition)	D (D = 76-100% inhibition)	C (C = 46-75% inhibition)
CO[C@H]1C[C@@H](Nc2nc(-c3nccn3C)nn3cc(-c4cccnc4)c(-c4ccccc4)c23)C1 [Compound 191, N-((1s,3s)-3-Methoxycyclobutyl)-2-(1-methyl-1H-imidazol-2-yl)-5-phenyl-6-(pyridin-3-yl)pyrrolo[2,1-f][1,2,4]triazin-4-amine]	50 to 74%	B (B = 26-49% inhibition)	B (B = 26-49% inhibition)	1 to 25%	B (B = 26-49% inhibition)	A (A = 1-25% inhibition)	A* (A* = 1-25% activation)
COc1cc(Nc2nc(-c3nccn3C)nn3cc(-c4ccn(C)n4)c(C)c23)ncc1F [Compound 237, N-(5-Fluoro-4-methoxypyridin-2-yl)-5-methyl-2-(1-methyl-1H-imidazol-2-yl)-6-(1-methyl-1H-pyrazol-3-yl)pyrrolo[2,1-f][1,2,4]triazin-4-amine]	0%	D (D = 76-100% inhibition)	D (D = 76-100% inhibition)	76 to 100%	D (D = 76-100% inhibition)	D (D = 76-100% inhibition)	A (A = 1-25% inhibition)
CO[C@H]1CC[C@@H](Nc2nc(-c3nccn3C)nn3cc(-c4cccnc4)c(-c4ccccc4)c23)C1 (racemic) [Compound 193, rac N-((1R,3S)-3-Methoxycyclopentyl)-2-(1-methyl-1H-imidazol-2-yl)-5-phenyl-6-(pyridin-3-yl)pyrrolo[2,1-f][1,2,4]triazin-4-amine]	75 to 100%	A (A = 1-25% inhibition)	A (A = 1-25% inhibition)	1 to 25%	A (A = 1-25% inhibition)	A (A = 1-25% inhibition)	A (A = 1-25% inhibition)
COc1cccc(-c2cn3nc(-c4nccn4C)nc(N[C@H]4C[C@H](OC)C4)c3c2-c2ccccc2)c1C [Compound 209, 6-(3-methoxy-2-methylphenyl)-N-((1r,3r)-3-methoxycyclobutyl)-2-(1-methyl-1H-imidazol-2-yl)-5-phenylpyrrolo[2,1-f][1,2,4]triazin-4-amine]	75 to 100%	A (A = 1-25% inhibition)	A (A = 1-25% inhibition)	26 to 49%	0 (0 = 0% inhibition)	A (A = 1-25% inhibition)	D (D = 76-100% inhibition)
COc1cc(Nc2nc(-c3nccn3C)nn3cc(-c4ccn(C)n4)c(C)c23)ncc1C [Compound 235, N-(4-Methoxy-5-methylpyridin-2-yl)-5-methyl-2-(1-methyl-1H-imidazol-2-yl)-6-(1-methyl-1H-pyrazol-3-yl)pyrrolo[2,1-f][1,2,4]triazin-4-amine]	50 to 84%	C (C = 50-75% inhibition)	C (C = 50-75% inhibition)	50 to 75%	B (B = 26-49% inhibition)	C (C = 50-75% inhibition)	0 (0 = 0% inhibition)
COc1ccnc(Oc2nc(-c3nccn3C)nn3cc(-c4ccn(C)n4)c(C)c23)c1 [Compound 220, 4-((4-Methoxypyridin-2-yl)oxy)-5-methyl-2-(1-methyl-1H-imidazol-2-yl)-6-(1-methyl-1H-pyrazol-3-yl)pyrrolo[2,1-f][1,2,4]triazine]	25 to 49%	A (A = 1-25% inhibition)	B (B = 26-49% inhibition)	26 to 49%	A (A = 1-25% inhibition)	B (B = 26-49% inhibition)	C (C = 46-75% inhibition)
COc1ccnc(Nc2nc(-c3nccn3C)nn3cc(-c4ccn(CCN)n4)c(C)c23)c1 [Compound 187, 6-(1-(2-Aminoethyl)-1H-pyrazol-3-yl)-N-(4-methoxypyridin-2-yl)-5-methyl-2-(1-methyl-1H-imidazol-2-yl)pyrrolo[2,1-f][1,2,4]triazin-4-amine]	50 to 74%	D (D = 76-100% inhibition)	D (D = 76-100% inhibition)	76 to 100%	D (D = 76-100% inhibition)	D (D = 76-100% inhibition)	A* (A* = 1-25% activation)
COc1ccnc(N(C)c2nc(-c3nccn3C)nn3cc(-c4ccn(C)n4)c(C)c23)c1 [Compound 223, N-(4-Methoxypyridin-2-yl)-N,5-dimethyl-2-(1-methyl-1H-imidazol-2-yl)-6-(1-methyl-1H-pyrazol-3-yl)pyrrolo[2,1-f][1,2,4]triazin-4-amine]	0%	A (A = 1-25% inhibition)	B (B = 26-49% inhibition)	26 to 49%	0 (0 = 0% inhibition)	B (B = 26-49% inhibition)	B (B = 26-45% inhibition)
COCCCS(=O)(=O)Nc1nc(-c2nccn2C)nn2cc(-c3ccccc3)c(-c3ccccc3)c12 [Compound 213, 3-Methoxy-N-(2-(1-methyl-1H-imidazol-2-yl)-5,6-diphenylpyrrolo[2,1-f][1,2,4]triazin-4-yl)propane-1-sulfonamide]	25 to 49%	D (D = 76-100% inhibition)	D (D = 76-100% inhibition)	50 to 75%	D (D = 76-100% inhibition)	D (D = 76-100% inhibition)	B (B = 26-45% inhibition)
